{
  "source": "patent US6664040B2",
  "about": "“Compositions and methods for delivery of a molecule into a cell” (priority 2000, dated 2003)",
  "key": {"[1]": {"assay": "Dynamic light scattering (DLS)", "assay_type": "physicochemical", "procedure": "DLS was performed on a DynaPro-801 Molecular Sizing Instrument. Protein solutions (250 μl) prepared either in water or in 50% aqueous TFE at a concentration of ˜3 mg ml^−1 (sVpr) or 4 mg ml^−1 (Vpr^47-96) were injected through a 0.1-μm Whatman membrane filter. Samples were illuminated by a semiconductor laser (780 nm, 25 mW) generated by a miniature solid-state Ga1-yAlyAs-diode. The photons scattered at a 90° angle by the particles in the sample were collected by an avalanche photodiode, and the time-dependent fluctuation in intensity of the scattered light was analyzed. The translational diffusion coefficient DT was calculated with the manufacturer's software (Dynamics, version 2.1). DT was then used to calculate the degree of sample polydispersity and the hydrodynamic radius of gyration RH of the particles using the Stokes-Einstein equation: (RH=(kbT)*(6πηDT)^−1 where kb=Boltzman's constant, T=absolute temperature in Kelvin, and η=solvent viscosity). Mr was calculated on a standard curve (Mr vs. RH) supplied by the manufacturer. Ten continuous measurements were made for each sample."}, "[2]": {"system": "rat yolk choriocarcinoma L2-RYC cells", "assay": "Cellular uptake of 125I-labeled peptides", "assay_type": "cell-based", "procedure": "sVpr and Vpu^32-81 were iodinated with the chloramine-T method. Briefly, ˜20 μg of peptides were reacted with 5.5×10^7 Bq (1.5 mCi) Na^125I. Free iodine was removed by gel filtration through a Dowex ion-exchange column saturated with bovine serum albumin (BSA). For studies on cellular uptake, rat yolk choriocarcinoma L2-RYC cells were grown in Dulbecco's modified Eagle's medium (DMEM) with 10% (v/v) fetal bovine serum (FBS) to 75% confluence on 24-well plates. Cells were washed once with phosphate-buffered saline (PBS) and incubated in serum-free DMEM supplemented with 0.1% BSA and ^125I-labeled sVpr or, as a negative control, ^125I-labeled Vpu^32-81. Radioactive peptides were added to the medium at a specific activity of 18 kBq ml^−1. In parallel, cells were also treated with a 100-fold excess of unlabeled sVpr or Vpu^32-81. Cells were incubated for specified times at 37° C., and the distribution of intra- and extracellular radioactivity was determined as described (50). […] Radioactivity was determined in triplicate in the medium and cell layer. To correct for nonspecific binding of peptides to the cell surface, the cell layer radioactivity determined at time point 0 min (time when radiolabeled peptides were added to the medium for less than 30 sec) was subtracted as background from the radioactivity detected in the cell layer."}, "[3]": {"system": "Jurkat T cells", "assay": "Apoptosis induction in Jurkat T cells", "assay_type": "cell-based, human", "details": "by 3 days"}, "[4]": {"system": "cells", "assay": "Transduction with and without urea denaturation (percent of cells FITC+)", "assay_type": "cell-based", "source_text": "(§1) Full length Vpr was chemically synthesized and fluorescently labeled, purified by reverse phase HPLC, and added to the extracellular media of various cell cultures. Flow cytometry and epifluorescence microscopy were employed to monitor cellular uptake of sVpr. The distribution of cells within different phases of the cell cycle was studied by To-Pro-3 dye staining of DNA followed by flow cytometric analysis."}, "[5]": {"system": "Jurkat T cells", "assay": "G2 cell cycle arrest in transduced Jurkat T cells", "assay_type": "cell-based, human", "details": "transduced subpopulations", "source_text": "as §1"}, "[6]": {"assay": "Immunization of rabbits with sVpr", "assay_type": "in vivo, rabbit", "details": "used to generate polyclonal and monoclonal antibodies", "quoted_text": "A rabbit polyclonal antiserum, R-96, was generated by immunization with sVpr."}, "[7]": {"system": "HIV-1 virions", "assay": "Incorporation of sVpr into HIV-1 virions (western blot)", "assay_type": "cell-based", "details": "anti-Vpr and anti-p24"}, "[8]": {"system": "HIV-1 ΔVpr", "assay": "HIV-1 ΔVpr replication in macrophages (RT activity) with sVpr in the extracellular medium", "assay_type": "cell-based", "details": "monocyte-derived macrophages"}, "[9]": {"system": "cells", "assay": "Trypsin-insensitive cellular uptake at 37° C. or 4° C. (geometric mean fluorescence)", "assay_type": "cell-based", "details": "presence or absence of trypsin", "source_text": "as §1"}, "[10]": {"assay": "Solubility / absence of precipitation in aqueous solution", "assay_type": "physicochemical"}, "[11]": {"system": "Jurkat T cells", "assay": "sVpr uptake by Jurkat T cells (flow cytometry)", "assay_type": "cell-based, human", "source_text": "as §1"}, "[12]": {"system": "peripheral blood mononuclear cells", "assay": "Transduction of freshly isolated peripheral blood mononuclear cells", "assay_type": "cell-based, human", "source_text": "as §1"}, "[13]": {"target": "synthetic Vpr (sVpr), full-length, sequence derived from the isolate HIV-1 NL4-3 (HIV-1 (isolate NL4-3)) (UniProt P12520)", "assay": "SDS-PAGE without reducing agent, silver stain; dimers prevented by DTT"}},
  "data": [
    {"substance": "Vpr^47-96: peptide comprising the C-terminal domain of sVpr from positions Tyr-47 to Ser-96", "values": [
      {"measurement": "hydrodynamic radius RH of major species (monomer, 94.2% abundance)", "setting": "[1]; 50% TFE", "value": 1.25},
      {"measurement": "hydrodynamic radius RH", "setting": "[1]; pure water (sVpr: 3.8 mg ml^−1, pH 3.0; components of 14% and 86% abundance)", "value": "~3", "unit": "nm"}
    ]},
    {"substance": "sVpr: synthetic full-length 96-amino acid HIV-1 Vpr, sequence derived from isolate HIV-1 NL4-3 (SEQ ID NO: 1), made by solid-phase peptide synthesis", "values": [
      {"measurement": "level of intracellular peptide, maximum", "setting": "[2]; 125I-labeled, within 2 hours, 37° C.", "value": "8-10%"},
      {"measurement": "uptake with 100-fold excess of unlabeled sVpr", "setting": "[2]; 120 min", "value": "not inhibited"},
      {"measurement": "apoptotic cells", "setting": "[3]", "value": "approximately 90%"},
      {"measurement": "effect of urea denaturation on transduction properties", "setting": "[4]", "value": "does not enhance"},
      {"measurement": "G2 cell cycle arrest", "setting": "[5]", "value": "induces a dose-dependent G2 cell cycle arrest"},
      {"measurement": "hydrodynamic radius RH (average)", "setting": "[1]; 50% TFE", "value": 2.3, "unit": "nm"},
      {"measurement": "immunogenicity", "setting": "[6]", "value": "highly immunogenic"},
      {"measurement": "incorporation into newly produced HIV-1 virions", "setting": "[7]", "value": "is incorporated into newly produced HIV-1 virions"},
      {"measurement": "replication of HIV viruses lacking Vpr", "setting": "[8]", "value": "significantly increases"},
      {"measurement": "cell entry at 4° C.", "setting": "[9]", "value": "enters cells at 4 °C"},
      {"measurement": "concentration at which no precipitation was observed", "setting": "[10]; aqueous solution", "value": "≥ 4", "unit": "mg/mL"},
      {"measurement": "precipitation under CD solution conditions", "setting": "[10]; phosphate buffer pH 3.9 to 7.2, water, TFE", "value": "no precipitation"},
      {"measurement": "transduction of Jurkat T cells", "setting": "[11]; 7.5, 15, 30 μg/ml", "value": "dose-dependent fashion"},
      {"measurement": "Cy3-positive cells (uptake)", "setting": "[11]; Jurkat T cells, at 5 min", "value": "> 75", "unit": "%"},
      {"measurement": "transduction of CD4+, CD8+, CD3− lymphocytes and CD14+ monocytes", "setting": "[12]; freshly isolated mixed cell populations", "value": "equivalently transduced"},
      {"measurement": "transduction of freshly isolated primary human cells", "setting": "[12]; nanomolar concentrations", "value": "rapidly and strongly transduces"}
    ]},
    {"substance": "synthetic Vpr (sVpr), full-length, sequence derived from the isolate HIV-1 NL4-3 (from UniProt P12520 1-96)", "values": [
      {"measurement": "percent of molecules as disulfide-linked dimers", "setting": "[13]", "value": 10, "unit": "%"}
    ]}
  ]
}
